Test results reported in PubChem BioAssay AID248 (DTP/NCI, 2004).
“And” between values parts separate entries of the source, which are not always exact repeats. Equal values may be shown once. Toxic doses and inconclusive results are not listed. Cut-off read from the data, not from the text of the source: active = T/C of 150% or more; inactive = T/C below 125%.

Test system: L1210 leukemia ip in BDF1 mice, survival T/C
Assay: NCI In Vivo Anticancer Drug Screen. Data for tumor model L1210 Leukemia (intraperitoneal) in B6D2F1 (BDF1) mice
Conditions: endpoint: mean survival time, higher = longer survival
Outline: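 Ratio derived from survival: compound-dosed mice over vehicle-dosed mice, all bearing a transplantable tumor.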

[1] = dose: 100.0 mg/kg/injection, schedule: Q04DX003 (ip), vehicle: Klucel (hydroxypropylcellulose) (HPC)
[2] = dose: 100.0 mg/kg/injection, schedule: Q01DX001 (ip), vehicle: saline
[3] = dose: 200.0 mg/kg/injection, schedule: Q01DX001 (ip), vehicle: saline
[4] = dose: 400.0 mg/kg/injection, schedule: Q01DX001 (ip), vehicle: saline
[5] = dose: 100.0 mg/kg/injection, schedule: Q01DX001 (ip), vehicle: carboxymethylcellulose (CMC)
[6] = dose: 100.0 mg/kg/injection, schedule: Q01DX009 (ip), vehicle: Klucel (hydroxypropylcellulose) (HPC)
[7] = dose: 200.0 mg/kg/injection, schedule: Q01DX009 (ip), vehicle: Klucel (hydroxypropylcellulose) (HPC)
[8] = dose: 400.0 mg/kg/injection, schedule: Q01DX009 (ip), vehicle: Klucel (hydroxypropylcellulose) (HPC)
[9] = dose: 100.0 mg/kg/injection, schedule: Q04DX003 (ip), vehicle: saline with Tween-80
[10] = dose: 200.0 mg/kg/injection, schedule: Q04DX003 (ip), vehicle: saline with Tween-80
[11] = dose: 400.0 mg/kg/injection, schedule: Q04DX003 (ip), vehicle: saline with Tween-80
[12] = dose: 100.0 mg/kg/injection, schedule: Q01DX009 (ip), vehicle: saline with Tween-80
[13] = dose: 200.0 mg/kg/injection, schedule: Q01DX009 (ip), vehicle: saline with Tween-80
[14] = dose: 400.0 mg/kg/injection, schedule: Q01DX009 (ip), vehicle: saline with Tween-80
[15] = dose: 75.0 mg/kg/injection, schedule: Q01DX001 (ip), vehicle: other
[16] = dose: 150.0 mg/kg/injection, schedule: Q01DX001 (ip), vehicle: other
[17] = dose: 100.0 mg/kg/injection, schedule: Q04DX002 (ip), vehicle: saline
[18] = dose: 200.0 mg/kg/injection, schedule: Q04DX002 (ip), vehicle: saline

Measured: T/C

C[n+]1ccc(Cl)c2ccc(Cl)cc21
inactive: dose: 10.0 mg/kg/injection, schedule: Q01DX001 (ip), vehicle: saline 100 % of control | dose: 20.0 mg/kg/injection, schedule: Q01DX001 (ip), vehicle: saline 102 % of control | dose: 40.0 mg/kg/injection, schedule: Q01DX001 (ip), vehicle: saline 102 % of control

CC1CCC(C(C)C)C(NCc2cc(Br)cc(Br)c2O)C1 (stereo not drawn)
inactive: [1] 98 % of control | dose: 200.0 mg/kg/injection, schedule: Q04DX003 (ip), vehicle: Klucel (hydroxypropylcellulose) (HPC) 92 % of control | dose: 400.0 mg/kg/injection, schedule: Q04DX003 (ip), vehicle: Klucel (hydroxypropylcellulose) (HPC) 98 % of control

COC(=O)CC(c1ccc2c(c1)OCO2)N1CCOCC1 (stereo not drawn)
inactive: [2] 119 % of control | [3] 113 % of control | [4] 104 % of control

CSc1ncnc2c1N=CNN2
inactive: dose: 50.0 mg/kg/injection, schedule: Q01DX001 (ip), vehicle: carboxymethylcellulose (CMC) 94 % of control | [5] 95 % of control

CC(C)c1cccc(C(C)C)c1OCCOC(=O)Nc1ccc(F)cc1
inactive: [6] 101 % of control | [7] 117 % of control | [8] 109 % of control

COc1cc2c3c(c1)-c1c(ccc(OC)c1O)CC3N(C)CC2 (stereo not drawn)
inactive: dose: 25.0 mg/kg/injection, schedule: Q04DX003 (ip), vehicle: DMSO 93 % of control | dose: 50.0 mg/kg/injection, schedule: Q04DX003 (ip), vehicle: DMSO 91 % of control | dose: 100.0 mg/kg/injection, schedule: Q04DX003 (ip), vehicle: DMSO 91 % of control

Cc1ccc(S(=O)(=O)NC(C(=O)O)C(C)C)cc1 (stereo not drawn)
inactive: [9] 102 % of control | [10] 100 % of control | [11] 102 % of control

Cc1ccc([N+](=O)[O-])cc1NC(=O)COc1ccc(Cl)cc1
inactive: [12] 91 % of control | [13] 89 % of control | [14] 89 % of control

NC(=O)NN=C(CS)CS
inactive: dose: 0.5 mg/kg/injection, schedule: Q01DX015 (ip), vehicle: carboxymethylcellulose (CMC) 93 % of control | dose: 1.0 mg/kg/injection, schedule: Q01DX015 (ip), vehicle: carboxymethylcellulose (CMC) 98 % of control | dose: 2.0 mg/kg/injection, schedule: Q01DX015 (ip), vehicle: carboxymethylcellulose (CMC) 96 % of control | dose: 4.0 mg/kg/injection, schedule: Q01DX015 (ip), vehicle: carboxymethylcellulose (CMC) 98 % of control and 104 % of control | dose: 5.0 mg/kg/injection, schedule: Q01DX001 (ip), vehicle: other 97 % of control | dose: 8.0 mg/kg/injection, schedule: Q01DX015 (ip), vehicle: carboxymethylcellulose (CMC) 98 % of control | dose: 10.0 mg/kg/injection, schedule: Q01DX001 (ip), vehicle: other 97 % of control | dose: 16.0 mg/kg/injection, schedule: Q01DX015 (ip), vehicle: carboxymethylcellulose (CMC) 98 % of control | dose: 20.0 mg/kg/injection, schedule: Q01DX001 (ip), vehicle: other 94 % of control | dose: 25.0 mg/kg/injection, schedule: Q04DX003 (ip), vehicle: Klucel (hydroxypropylcellulose) (HPC) 104 % of control | dose: 32.0 mg/kg/injection, schedule: Q01DX015 (ip), vehicle: carboxymethylcellulose (CMC) 98 % of control | dose: 40.0 mg/kg/injection, schedule: Q01DX001 (ip), vehicle: other 97 % of control | dose: 50.0 mg/kg/injection, schedule: Q04DX003 (ip), vehicle: Klucel (hydroxypropylcellulose) (HPC) 101 % of control | dose: 80.0 mg/kg/injection, schedule: Q01DX001 (ip), vehicle: other 95 % of control | [1] 101 % of control

CCOC(=O)C(=O)c1ccccc1
inactive: [12] 100 % of control | [9] 96 % of control | [13] 103 % of control | [10] 103 % of control | [14] 97 % of control | [11] 103 % of control

O=C1NC(=O)C2C3C(C(O)(c4ccccc4)c4ccccn4)=CC(/C3=C(\c3ccccc3)c3ccccn3)C12 (stereo not drawn)
inactive: dose: 0.5 mg/kg/injection, schedule: Q01DX010 (ip), vehicle: saline 101 % of control | dose: 1.0 mg/kg/injection, schedule: Q01DX010 (ip), vehicle: saline 93 % of control | dose: 2.0 mg/kg/injection, schedule: Q01DX010 (ip), vehicle: saline 101 % of control | dose: 2.0 mg/kg/injection, schedule: Q01DX010 (oral), vehicle: saline 96 % of control | dose: 4.0 mg/kg/injection, schedule: Q01DX010 (ip), vehicle: saline 93 % of control | dose: 4.0 mg/kg/injection, schedule: Q01DX010 (oral), vehicle: saline 96 % of control | dose: 8.0 mg/kg/injection, schedule: Q01DX010 (oral), vehicle: saline 96 % of control | dose: 16.0 mg/kg/injection, schedule: Q01DX010 (oral), vehicle: saline 96 % of control | [5] 98 % of control | dose: 200.0 mg/kg/injection, schedule: Q01DX001 (ip), vehicle: carboxymethylcellulose (CMC) 102 % of control | dose: 400.0 mg/kg/injection, schedule: Q01DX001 (ip), vehicle: carboxymethylcellulose (CMC) 104 % of control

Cc1ccc(OCc2c(COc3ccc(Cl)cc3)sc3ccc(Cl)cc23)cc1
inactive: dose: 12.5 mg/kg/injection, schedule: Q01DX009 (ip), vehicle: saline with Tween-80 97 % of control | dose: 25.0 mg/kg/injection, schedule: Q01DX009 (ip), vehicle: saline with Tween-80 95 % of control | dose: 25.0 mg/kg/injection, schedule: Q04DX003 (ip), vehicle: saline with Tween-80 87 % of control | dose: 50.0 mg/kg/injection, schedule: Q01DX009 (ip), vehicle: saline with Tween-80 101 % of control | dose: 50.0 mg/kg/injection, schedule: Q04DX003 (ip), vehicle: saline with Tween-80 87 % of control

CCc1c(C)nc2[nH]ncn2c1=O
inactive: [15] 96 % of control | [16] 97 % of control | dose: 300.0 mg/kg/injection, schedule: Q01DX001 (ip), vehicle: other 93 % of control

CC(=O)c1ccc2c3ccccc3n(CCCN3CCC(O)CC3)c2c1
inactive: [17] 95 % of control | [18] 113 % of control

CN=C1C2CCC(C2)CC1(O)c1ccccc1 (stereo not drawn)
inactive: dose: 50.0 mg/kg/injection, schedule: Q01DX001 (ip), vehicle: saline 102 % of control | [2] 102 % of control

CC(C)(C)C(=O)Nc1ccc(NS(=O)(=O)c2ccccc2)cc1
inactive: [9] 102 % of control | [10] 89 % of control | [11] 88 % of control

CCOC(=O)CNC(=O)NCc1ccc2c(c1)OCO2
inactive: [12] 98 % of control | [13] 90 % of control

O=C(NNc1ccccc1)c1ccc(Cl)cc1
inactive: dose: 100.0 mg/kg/injection, schedule: Q04DX002 (ip), vehicle: gum acacia 112 % of control | dose: 200.0 mg/kg/injection, schedule: Q04DX002 (ip), vehicle: gum acacia 87 % of control | dose: 400.0 mg/kg/injection, schedule: Q04DX002 (ip), vehicle: gum acacia 102 % of control

OCC1OC(n2cnc3c([Se])ncnc32)C(O)C1O (stereo not drawn)
inactive: dose: 100.0 mg/kg/injection, schedule: Q01DX005 (ip), vehicle: saline 105 % of control

CCOC(=O)C1=NN(c2ccccc2)C(=O)C1N=Nc1ccc(S(=O)(=O)Nc2ccccn2)cc1 (stereo not drawn)
inactive: [2] 102 % of control | [3] 96 % of control | [4] 93 % of control

NCCOc1ccccn1
inactive: [17] 111 % of control | [18] 101 % of control | dose: 400.0 mg/kg/injection, schedule: Q04DX002 (ip), vehicle: saline 101 % of control

CC(=O)N(C)c1ccc(NC(=O)/C=C/c2ccccc2)cc1
inactive: [6] 95 % of control | [7] 101 % of control | [8] 105 % of control

CNC(=O)Oc1coc(CCl)cc1=O
inactive: dose: 37.5 mg/kg/injection, schedule: Q01DX001 (ip), vehicle: other 106 % of control | [15] 101 % of control | [16] 104 % of control
